Consider 3 molecules from patent US20120232066A1, “COMPOSITIONS FOR REDUCING RISK OF ADVERSE EVENTS CAUSED BY DRUG-DRUG INTERACTIONS” (priority 2011, published 2012).

The nature of series [1]: Oral administration of Compound KC-17 co-dosed with Compound 109 to rats; oxycodone in plasma. Type of series: in vivo, rat. Conditions: KC-17 50 mg/kg.
Description: At specified time points, blood samples were drawn, harvested for plasma via centrifugation at 5,400 rpm at 4° C. for 5 min, and 100 microliters (μl) plasma transferred from each sample into a fresh tube containing 2 μl of 50% formic acid. The tubes were vortexed for 5-10 seconds, immediately placed in dry ice, and then stored in a −80° C. freezer until analysis by HPLC/MS.
A short description of series [2]: Oral administration of Compound AM-2 and Compound 109 to rats; amphetamine in plasma. Conditions: suppressing Cmax and delaying Tmax. Type of series: in vivo, rat. An excerpt:
Table 10 and FIG. 10 provide amphetamine exposure results for rats administered with Compound AM-2 and with or without a co-dose of trypsin inhibitor.

Series [3] is described as follows: Oral administration of Compound PC-1 and SBTI trypsin inhibitor to rats; hydromorphone in blood. Conditions: for Cmax (ng/mL HM): hydromorphone in rat blood, PO PC-1 20 mg/kg. Here is the method: At specified time points, blood samples were drawn, quenched into methanol, centrifuged at 14,000 rpm @ 4° C., and stored at −80° C. until analysis by high performance liquid chromatography/mass spectrometry (HPLC/MS).

As for `N=C(N)c1ccc2cc(OC(=O)c3ccc(N=C(N)N)cc3)ccc2c1` [Compound 109, 6-carbamimidoylnaphthalen-2-yl 4-(diaminomethyleneamino)benzoate], the “effect of Compound 109 on oxycodone release from Compound KC-17” value in series [1] is “attenuate release of oxycodone by prodrugs of the embodiments”. The “effect of Compound 109 on amphetamine release from Compound AM-2” value in series [2] was “ability to attenuate”.
Regarding `CC(=O)NC(CCCNC(=N)N)C(=O)NCCN(C)C(=O)Oc1ccc2c3c1OC1C(=O)CCC4C(C2)N(C)CCC314` (stereo not drawn) [Compound PC-1, Hydromorphone 3-(N-methyl-N-(2-N′-acetylarginylamino)) ethylcarbamate], the “Cmax (ng/mL HM)” value in series [3] (SBTI 0 mg/kg) is reported as 16.5 ± 5.3 ng/mL; in series [3] (SBTI 10 mg/kg), 8.9 ± 1.8 ng/mL; in series [3] (SBTI 100 mg/kg) it was 6.0 ± 4.0 ng/mL; in series [3] (SBTI 500 mg/kg), less than 5 ng/mL; in series [3] (SBTI 1000 mg/kg), less than 5 ng/mL.

B1: SBTI: trypsin inhibitor from Glycine max (soybean) (Catalog No. 93620, ~10,000 units per mg, Sigma-Aldrich) (protein, UniProt P01070 25-205, looked up)
Trypsin inhibitor A: DFVLDNEGNPLENGGTYYILSDITAFGGIRAAPTGNERCPLTVVQSRNELDKGIGTIISSPYRIRFIAEGHPLSLKFDSFAVIMLCVGIPTEWSVVEDLPEGPAVKIGENKDAMDGWFRLERVSDDEFNNYKLVFCPQQAEDDKCGDIGISIDHDDGTRRLVVSKNKPLVVQFQKLDKESL
As to B1, the “effect of SBTI on hydromorphone release from Compound PC-1 into blood” value in series [3] (rats PO, PC-1 20 mg/kg and 10, 100, 500 or 1000 mg/kg SBTI) is “suppresses Cmax and delays Tmax”. In addition, the “attenuation of Compound PC-1's ability to release hydromorphone” value in series [3] (rats PO, PC-1 20 mg/kg, at higher SBTI concentrations) was “approximately 100%”.
